In publication PMC9120017, “Inhibition mechanism of the chloride channel TMEM16A by the pore blocker 1PBC” (Nature Communications, 2022):
Read-outs that look alike come from different tables or passages of the source.

Target: T1, mouse TMEM16B (Mus musculus, UniProt Q8CFW1)
T1 construct: expressed in transfected cells; host or cells: HEK293T
T1 sequence (Q8CFW1 1-1002): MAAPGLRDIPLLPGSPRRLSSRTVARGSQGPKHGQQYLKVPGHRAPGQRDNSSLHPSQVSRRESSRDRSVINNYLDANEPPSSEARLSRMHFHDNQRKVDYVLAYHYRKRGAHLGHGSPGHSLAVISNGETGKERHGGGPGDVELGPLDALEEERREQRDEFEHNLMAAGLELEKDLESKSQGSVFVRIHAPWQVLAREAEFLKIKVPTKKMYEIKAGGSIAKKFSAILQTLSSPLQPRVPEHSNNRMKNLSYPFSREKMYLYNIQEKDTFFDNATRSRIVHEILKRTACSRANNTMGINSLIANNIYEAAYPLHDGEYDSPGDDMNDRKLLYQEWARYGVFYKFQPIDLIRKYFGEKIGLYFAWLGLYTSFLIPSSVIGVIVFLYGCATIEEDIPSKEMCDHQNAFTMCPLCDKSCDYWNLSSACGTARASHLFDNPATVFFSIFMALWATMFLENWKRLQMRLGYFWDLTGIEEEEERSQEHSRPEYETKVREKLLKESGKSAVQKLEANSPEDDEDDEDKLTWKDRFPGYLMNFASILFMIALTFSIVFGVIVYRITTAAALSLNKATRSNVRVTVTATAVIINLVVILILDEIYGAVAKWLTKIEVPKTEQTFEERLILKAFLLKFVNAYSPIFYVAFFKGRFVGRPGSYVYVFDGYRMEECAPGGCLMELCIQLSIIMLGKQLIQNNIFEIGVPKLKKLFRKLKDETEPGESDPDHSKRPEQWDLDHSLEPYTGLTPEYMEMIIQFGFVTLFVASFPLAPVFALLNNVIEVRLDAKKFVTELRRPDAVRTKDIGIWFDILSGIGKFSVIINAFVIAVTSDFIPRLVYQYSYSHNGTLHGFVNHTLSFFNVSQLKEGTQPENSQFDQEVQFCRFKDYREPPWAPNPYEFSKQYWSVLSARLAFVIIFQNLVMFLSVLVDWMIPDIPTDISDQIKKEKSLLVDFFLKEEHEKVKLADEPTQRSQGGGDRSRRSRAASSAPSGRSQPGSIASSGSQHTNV
Test: Inside-out patch recording of 1PBC block, TMEM16B
Assay type: cell-based
Conditions: 15 µM Ca2+; for remaining activity at 3 µM: 3 µM 1PBC; for remaining activity at 3 µM / remaining activity at 10 µM / remaining activity at 30 µM / remaining activity at 100 µM: read-out: I/Imax; for remaining activity at 10 µM: 10 µM 1PBC; for remaining activity at 30 µM: 30 µM 1PBC; for remaining activity at 100 µM: 100 µM 1PBC
Protocol: HEK293T cells (ATCC CRL-1573) were maintained in Dulbecco’s modified Eagle’s medium (DMEM; Sigma-Aldrich) supplemented with 10 U ml^−1 penicillin, 0.1 mg ml^−1 streptomycin (Sigma-Aldrich), 2 mM L-glutamine (Sigma-Aldrich), and 10% FBS (Sigma-Aldrich) in a humidified atmosphere containing 5% CO2 at 37 °C. HEK293S GnTI^− cells (ATCC CRL-3022) were maintained in HyClone HyCell TransFx-H medium (GE Healthcare) supplemented with 10 U ml^−1 penicillin, 0.1 mg ml^−1 streptomycin, 4 mM L-glutamine, 0.15% poloxamer 188 (Sigma-Aldrich), and 1% FBS in an atmosphere containing 5% CO2 at 185 rpm at 37 °C. The ac splice variant of mouse TMEM16A (UniProt ID: Q8BHY3), mouse TMEM16B (UniProt ID: Q8CFW1), or mouse TMEM16F (UniProt ID: Q6P9J9) bearing a 3C cleavage site, a Venus YFP, a Myc tag, and a Streptavidin-binding peptide (SBP) downstream of the open reading frame in a modified pcDNA3.1 vector (Invitrogen) were used as described previously[21],[31]. Mutations were introduced using a modified QuikChange method[58] and were verified by sequencing.
HEK293T cells were transfected with 3–4 μg DNA per 6 cm Petri dish using the calcium phosphate co-precipitation method and were used within 24–96 h after transfection. Recordings were performed on inside-out patches excised from HEK293T cells expressing the construct of interest. Patch pipettes were pulled from borosilicate glass capillaries (O.D. 1.5 mm, I.D. 0.86 mm, Sutter Instrument) and were fire-polished with a microforge (Narishige) before use. Pipette resistance was typically 3–8 MΩ when filled with the recording solutions detailed below. Seal resistance was typically 4 GΩ or higher. Voltage-clamp recordings were made using Axopatch 200B, Digidata 1550, and Clampex 10.7 (Molecular Devices). Analog signals were filtered with the in-built 4-pole Bessel filter at 10 kHz and were digitized at 20 kHz. Solution exchange was achieved using a gravity-fed system through a theta glass pipette mounted on an ultra-fast piezo-driven stepper (Siskiyou). […] All recordings were performed at 20 °C.
A symmetrical ionic condition was used throughout. Stock solution with Ca^2+-EGTA contained 150 mM NaCl, 5.99 mM Ca(OH)2, 5 mM EGTA, and 10 mM HEPES at pH 7.40. Stock solution with EGTA contained 150 mM NaCl, 5 mM EGTA, and 10 mM HEPES at pH 7.40. Free Ca^2+ concentrations were adjusted by mixing the stock solutions at the required ratios calculated using the WEBMAXC program (http://web.stanford.edu/~cpatton/webmaxcS.htm). Patch pipettes were filled with the stock solution with Ca^2+-EGTA, which has a free Ca^2+ concentration of 1 mM. 1PBC (ChemBridge) stock was reconstituted in anhydrous DMSO (Sigma-Aldrich) at 100 mM and stored at −20 °C. Working solutions with 1PBC were prepared by serial dilution. Unless otherwise stated, experiments were performed at a saturating Ca^2+ concentration as shown in Supplementary Table 1 and the primary data were corrected for current rundown as described previously[21],[25].
Concentration-response relations, obtained from the ratio of the I-V plots before and after the application of the blocker, were fitted to the Hill equation,1 I/Imax=1/1+IC50/[blocker]^h where I/Imax is the normalized current responses, IC50 defines the concentration at which inhibition is at its half-maximum, and h is the Hill coefficient.

- remaining activity at 3 µM (+80 mV): 55.6%
- remaining activity at 3 µM (-80 mV): 89.9%
- remaining activity at 10 µM (+80 mV): 31%
- remaining activity at 10 µM (-80 mV): 70.1%
- Block of the channel TMEM16B: blocks
- remaining activity at 30 µM (+80 mV): 16.8%
- remaining activity at 30 µM (-80 mV): 43.9%
- remaining activity at 100 µM (+80 mV): 7.99%
- remaining activity at 100 µM (-80 mV): 20.5%
Structure (SMILES): N#Cc1c(C(F)(F)F)cc(O)n2c1nc1ccccc12 [1PBC]
